Biological target: T1, Histone-binding protein RBBP4/Histone-lysine N-methyltransferase EZH2/Polycomb protein EED [40-441]/Polycomb protein SUZ12 (Homo sapiens, UniProt O75530+Q09028+Q15022+Q15910)
T1 construct: 40-441
Test: TR-FRET Assay
Method: The TR-FRET method was used to measure the PRC2 enzyme activity. First, the enzyme was mixed with compounds at different concentrations and incubated for 30 min at room temperature. The biotin-labeled histone H3 peptide substrate and the cofactor S-adenosylmethionine (SAM) were added to initiate the enzymatic reaction. After reaction was performed at room temperature for 4 hour, Acceptor and Donor were added and incubated for half an hour. The multifunctional microplate reader EnVision (Perkin Elmer Inc.) was used to detect the fluorescence signal.

T1 sequence (Q15910 whole entry): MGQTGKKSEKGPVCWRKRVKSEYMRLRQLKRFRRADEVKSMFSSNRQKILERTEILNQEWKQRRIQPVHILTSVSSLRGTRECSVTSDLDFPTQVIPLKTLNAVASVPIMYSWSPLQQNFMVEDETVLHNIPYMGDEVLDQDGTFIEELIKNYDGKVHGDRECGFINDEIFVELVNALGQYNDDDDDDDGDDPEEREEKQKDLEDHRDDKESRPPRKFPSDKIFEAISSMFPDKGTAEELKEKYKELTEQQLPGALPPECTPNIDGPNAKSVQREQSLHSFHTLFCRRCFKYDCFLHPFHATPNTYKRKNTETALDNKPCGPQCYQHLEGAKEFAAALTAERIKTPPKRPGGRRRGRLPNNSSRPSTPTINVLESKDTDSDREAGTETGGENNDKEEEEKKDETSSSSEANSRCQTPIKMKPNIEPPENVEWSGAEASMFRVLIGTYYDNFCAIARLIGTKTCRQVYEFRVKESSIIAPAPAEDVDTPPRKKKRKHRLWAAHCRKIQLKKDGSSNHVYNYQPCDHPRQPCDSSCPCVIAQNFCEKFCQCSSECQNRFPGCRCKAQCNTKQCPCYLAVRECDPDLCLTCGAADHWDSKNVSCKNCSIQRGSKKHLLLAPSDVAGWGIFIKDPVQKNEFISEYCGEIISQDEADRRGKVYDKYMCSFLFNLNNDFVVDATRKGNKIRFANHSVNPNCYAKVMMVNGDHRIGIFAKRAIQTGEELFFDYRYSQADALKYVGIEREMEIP
T1 sequence (Q15022 whole entry): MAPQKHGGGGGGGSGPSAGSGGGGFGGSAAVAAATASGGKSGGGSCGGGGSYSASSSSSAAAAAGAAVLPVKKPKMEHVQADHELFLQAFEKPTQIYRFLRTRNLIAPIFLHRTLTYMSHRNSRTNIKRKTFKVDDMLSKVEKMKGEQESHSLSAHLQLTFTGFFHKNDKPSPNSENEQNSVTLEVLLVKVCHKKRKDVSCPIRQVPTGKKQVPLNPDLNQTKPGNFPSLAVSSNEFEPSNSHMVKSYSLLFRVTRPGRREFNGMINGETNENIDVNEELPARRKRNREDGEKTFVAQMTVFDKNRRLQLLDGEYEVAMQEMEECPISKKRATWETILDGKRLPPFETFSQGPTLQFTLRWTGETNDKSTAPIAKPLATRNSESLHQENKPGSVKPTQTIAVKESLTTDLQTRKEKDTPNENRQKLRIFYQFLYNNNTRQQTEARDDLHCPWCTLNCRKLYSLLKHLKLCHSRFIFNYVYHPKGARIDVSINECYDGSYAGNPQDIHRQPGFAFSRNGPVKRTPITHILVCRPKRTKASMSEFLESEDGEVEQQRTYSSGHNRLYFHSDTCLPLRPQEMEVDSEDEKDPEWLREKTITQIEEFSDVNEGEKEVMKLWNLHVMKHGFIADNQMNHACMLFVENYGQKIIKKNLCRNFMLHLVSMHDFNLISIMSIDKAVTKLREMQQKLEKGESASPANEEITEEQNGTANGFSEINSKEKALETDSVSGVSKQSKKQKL
T1 sequence (Q09028 whole entry): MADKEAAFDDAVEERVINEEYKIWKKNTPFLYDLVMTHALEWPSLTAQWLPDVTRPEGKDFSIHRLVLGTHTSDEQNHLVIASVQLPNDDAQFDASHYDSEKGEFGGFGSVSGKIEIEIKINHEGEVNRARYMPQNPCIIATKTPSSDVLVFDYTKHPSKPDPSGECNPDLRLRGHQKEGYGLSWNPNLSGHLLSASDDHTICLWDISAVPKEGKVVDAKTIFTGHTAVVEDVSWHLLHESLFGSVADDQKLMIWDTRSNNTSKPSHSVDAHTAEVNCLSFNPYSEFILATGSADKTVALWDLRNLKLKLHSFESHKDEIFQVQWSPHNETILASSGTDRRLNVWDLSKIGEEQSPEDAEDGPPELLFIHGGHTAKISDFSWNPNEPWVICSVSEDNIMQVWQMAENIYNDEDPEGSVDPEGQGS
T1 sequence (O75530 40-441): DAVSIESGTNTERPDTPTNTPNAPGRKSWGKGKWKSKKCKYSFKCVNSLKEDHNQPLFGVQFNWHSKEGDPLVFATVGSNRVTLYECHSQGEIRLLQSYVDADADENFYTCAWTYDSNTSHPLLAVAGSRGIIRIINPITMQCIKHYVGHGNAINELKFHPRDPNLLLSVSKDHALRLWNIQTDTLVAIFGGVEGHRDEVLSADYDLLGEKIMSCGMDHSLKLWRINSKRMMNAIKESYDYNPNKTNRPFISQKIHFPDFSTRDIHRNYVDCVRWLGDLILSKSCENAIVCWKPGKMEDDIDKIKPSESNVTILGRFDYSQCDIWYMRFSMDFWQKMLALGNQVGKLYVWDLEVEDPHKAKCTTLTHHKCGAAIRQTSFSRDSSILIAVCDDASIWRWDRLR

| IC50 | Compound |
| --- | --- |
| 92 nM | O=C(Nc1ccc(Cl)cc1)N1CC=C(c2cnc(NCc3ccco3)n3cnnc23)CC1 [US11013745, Compound E-Y27] |
| 58.5 nM | O=C(Nc1ccc(Cl)cc1)N1CC=C(c2cnc(NCc3c(F)ccc4c3CCO4)n3cnnc23)CC1 [US11013745, Compound E-Y38] |

Reference: BindingDB's records for patent US11013745 (Shanghai Institute of Material Medica, Chinese Academy of …, 2021)
